Data: paper PMC2962730 (Journal of neurochemistry, 2010)
Positions count from the first letter of the chain named.

How the values were obtained:
hVAChT C388A = molecular target: T1, hVAChT C388A (Homo sapiens, UniProt Q16572, C388A); test: [3H]ACh transport; format: biochemical
T1 sequence (Q16572 1-532 C388A): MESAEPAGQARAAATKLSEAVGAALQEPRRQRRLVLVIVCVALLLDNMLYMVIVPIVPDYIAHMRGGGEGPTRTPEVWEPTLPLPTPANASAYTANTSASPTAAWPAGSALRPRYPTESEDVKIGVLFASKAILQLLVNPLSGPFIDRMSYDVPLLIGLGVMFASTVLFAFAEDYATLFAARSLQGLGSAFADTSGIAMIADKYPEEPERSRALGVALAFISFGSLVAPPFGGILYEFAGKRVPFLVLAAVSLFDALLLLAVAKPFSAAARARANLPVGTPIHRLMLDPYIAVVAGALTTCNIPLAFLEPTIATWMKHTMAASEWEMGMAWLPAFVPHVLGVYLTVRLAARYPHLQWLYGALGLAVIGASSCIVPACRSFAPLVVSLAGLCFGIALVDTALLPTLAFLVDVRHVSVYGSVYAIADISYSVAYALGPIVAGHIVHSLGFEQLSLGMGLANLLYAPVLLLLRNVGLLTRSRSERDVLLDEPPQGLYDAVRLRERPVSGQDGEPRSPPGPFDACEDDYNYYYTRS

hVAChT wild-type = molecular target: T2, hVAChT wild-type (Homo sapiens, UniProt Q16572); test: ACh equilibrium binding by competition against [3H]vesamicol; settings: WT hVAChT; pH 7.4
T2 sequence (Q16572 1-532): T1 sequence (Q16572 1-532 C388A) with A388C

hVAChT W331L = molecular target: T3, hVAChT W331L (Homo sapiens, UniProt Q16572, W331L); test: as above
T3 sequence (Q16572 1-532 W331L): T1 sequence (Q16572 1-532 C388A) with W331L, A388C

hVAChT A334F = molecular target: T4, hVAChT A334F (Homo sapiens, UniProt Q16572, A334F); test: [3H]vesamicol saturation binding; settings: pH 7.4
T4 sequence (Q16572 1-532 A334F): T1 sequence (Q16572 1-532 C388A) with A334F, A388C

hVAChT C391A = molecular target: T5, hVAChT C391A (Homo sapiens, UniProt Q16572, C391A); test: [3H]vesamicol saturation binding; settings: pH 7.4
T5 sequence (Q16572 1-532 C391A): T1 sequence (Q16572 1-532 C388A) with A388C, C391A

| SMILES | Vmax/Bmax, ACh transport normalized to Bmax (hVAChT C388A; pH 7.4) | Km (hVAChT C388A; read-out: KM, Michaelis-Menten constant for ACh transport, pH 7.4) | FHA, fraction of the ACh sites that have high affinity (hVAChT wild-type) | ACh bound more weakly than by wild-type (hVAChT W331L; W331L hVAChT vs wild-type) | FHA, fraction of the ACh sites that have high affinity (hVAChT W331L; W331L hVAChT, pH 7.4, monophasic fit, FHA fixed to 1) | Bmax, maximal specific [3H]vesamicol binding (VAChT expression level) (hVAChT A334F) | Bmax, maximal specific [3H]vesamicol binding (VAChT expression level) (hVAChT C391A) |
| --- | --- | --- | --- | --- | --- | --- | --- |
| CC(=O)OCC[N+](C)(C)C [ACh, acetylcholine] | 12 ± 1 min⁻¹ | 2300 ± 500 µM | 0.82 ± 0.04 | 10 fold | 1.0 |  |  |
| O[C@@H]1CCCC[C@H]1N1CCC(c2ccccc2)CC1 (racemic) [vesamicol, ( )-trans-2-(4-phenylpiperidino)cyclohexanol] |  |  |  |  |  | 13 ± 1 pmol/mg | 34 ± 3 pmol/mg |
